In one assay the target is T1, μ-opioid receptor (MOR) (Homo sapiens, UniProt P35372).
T1 construct: host or cells: cAMP Hunter CHO-K1 OPRM1 Gαi cell line
The assay can be described thus: MOR agonist cAMP assay (HitHunter cAMP, forskolin-stimulated). In kind it is cell-based. As for the experimental part:
(§1) The HitHunter® cAMP chemiluminescent assay kit (DiscoveRx, Cat# 90-0075 SM25) was used to detect cAMP production in cAMP Hunter™ Gαi cell lines over expressing either Human-ORPM1 (Discoverx, Catalog# 95-0107C2) or Human-ORPD1 (DiscoveRx, Catalog# 95-0108C2). Opioid agonist binding to the Gαi receptors inhibits the intracellular cAMP accumulation induced by forskolin, which activates adenylate cyclase and increases intracellular levels of cAMP.
(§2) Cells were cultured in media consisting of Ham's F-12 Nutrient Mix (Life Technologies, Catalog#31765035), 10% FBS (Life Technologies, Catalog# 16140-071), 4 mM GlutaMAX (Life Technologies, Catalog#35050-061), […] (Life Technologies), 100 ug/ml of Penn-Strep (Life Technologies) and 0.5 mg/ml Geneticin (Life Technologies, Catalog# 10131-027). The cultures were maintained at 37° C. under 5% CO2.
(§3) In preparation for cAMP assay, the cells were seeded at a density of 300,000 cells/ml in 100 ul of media/well in 96-well microplate. Wells that were designated for cAMP standards were left empty.
(§4) Opioid agonist serial dilutions were prepared in separate dilution plate (11-point series of 3× (3-fold) dilution) in Cell Assay buffer, including 3× forskolin for Gαi target. For Hunter CHO-K1 OPRM1 or CHO-K1 OPRD1 Gαi Cell Lines, the final forskolin concentration was 20 uM.
(§5) 15 ul of each 3× opioid agonist serial dilution was added in the presence of forskolin in duplicate to the designated wells. The final concentration of each dilution was at 3× of the final screening concentration. The assay plate was incubated for 30 min, at 37° C. under 5% CO2.
(§6) Cellular cAMP concentrations were measured using the HitHunter cAMP Assay kit following the manufacturer's protocol. HitHunter cAMP assay is a gain-of-signal competitive immunoassay based on Enzyme Fragment Complementation (EFC) technology. The kit uses β-galactosidase (β-gal) enzyme split into Enzyme Donor (ED) and Enzyme Acceptor (EA). The cellular cAMP and ED-labelled cAMP compete for anti-cAMP antibody. […] When cellular cAMP level is high, it competes for the anti-cAMP antibody, thereby releasing ED-cAMP to complement with EA to produce a luminescent signal. The amount of signal is directly proportional to the amount of cAMP in cells and can be quantified using cAMP standards. The assay plates were read using a PerkinElmer Envision instrument to detect the chemiluminescence signal in each well (luminescence reader at 0.1 to 1 second/well). Data analysis was performed using Graphpad Prism 7.EC50 was calculated by nonlinear regression, using the four-parameter hill equation.

For a further assay, the target named is T2, δ-opioid receptor (DOR) (Homo sapiens, UniProt P41143).
T2 construct: host or cells: cAMP Hunter CHO-K1 OPRD1 Gαi cell line
T2 sequence (P41143 whole entry): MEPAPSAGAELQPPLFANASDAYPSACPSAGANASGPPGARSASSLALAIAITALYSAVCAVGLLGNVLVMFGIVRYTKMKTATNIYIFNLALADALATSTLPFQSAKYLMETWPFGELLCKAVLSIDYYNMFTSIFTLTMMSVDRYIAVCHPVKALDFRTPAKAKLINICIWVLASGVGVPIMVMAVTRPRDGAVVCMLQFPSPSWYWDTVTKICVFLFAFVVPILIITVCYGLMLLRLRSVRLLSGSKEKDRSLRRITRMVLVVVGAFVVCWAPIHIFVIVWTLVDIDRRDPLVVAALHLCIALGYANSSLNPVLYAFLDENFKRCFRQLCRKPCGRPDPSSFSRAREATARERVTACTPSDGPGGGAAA
The assay can be described thus: DOR agonist cAMP assay (HitHunter cAMP, forskolin-stimulated). The assay is classed as cell-based. As for the experimental part: as §1, §2, §3, §4, §5, §6

Square brackets hold non-standard residues; d marks the D form. Peptide text beside a SMILES is read from it. Phe(2,6-Me2,4-CONH2) = Cc1cc(C(N)=O)cc(C)c1C[C@H](N)C(=O)O; Bip = N[C@@H](Cc1ccc(-c2ccccc2)cc1)C(=O)O; Dmt = Cc1cc(O)cc(C)c1C[C@H](N)C(=O)O; hPhe = N[C@@H](CCc1ccccc1)C(=O)O; dTic = O=C(O)[C@H]1Cc2ccccc2CN1; β3hF = N[C@H](CC(=O)O)Cc1ccccc1; Sar = CNCC(=O)O Bounds are passed on as bounds.

T1 sequence (P35372 whole entry): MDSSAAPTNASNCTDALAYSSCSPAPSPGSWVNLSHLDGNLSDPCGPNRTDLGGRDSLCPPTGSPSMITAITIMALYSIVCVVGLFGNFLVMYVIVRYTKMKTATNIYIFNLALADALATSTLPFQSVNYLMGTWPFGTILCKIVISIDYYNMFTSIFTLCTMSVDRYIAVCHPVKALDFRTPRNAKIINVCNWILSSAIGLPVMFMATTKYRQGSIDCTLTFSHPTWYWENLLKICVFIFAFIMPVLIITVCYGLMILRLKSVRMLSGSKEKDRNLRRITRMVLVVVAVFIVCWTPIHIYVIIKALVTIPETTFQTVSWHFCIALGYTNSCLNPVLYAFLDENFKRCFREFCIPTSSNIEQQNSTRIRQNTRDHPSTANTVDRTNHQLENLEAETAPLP

For orientation: EC50 means the concentration needed to bring the measured effect to its halfway point. Turning to `Cc1cc(C(N)=O)cc(C)c1C[C@H](N)C(=O)N1Cc2ccccc2C[C@H]1C(=O)NCC(=O)N[C@H](CC(=O)N(C)CC(N)=O)Cc1ccccc1` [compound 103], the EC50 on μ-opioid receptor (MOR) and at δ-opioid receptor (DOR) was 50 to 200 nM throughout.
For `Cc1cc(O)cc(C)c1C[C@H](N)C(=O)N[C@H](CCC(=O)O)C(=O)NCC(=O)N[C@H](CC(=O)N(C)CC(N)=O)Cc1ccccc1` [compound 187], the EC50 at μ-opioid receptor (MOR) is under 1 nM; on δ-opioid receptor (DOR), 1 to 10 nM.
For `Cc1cc(O)cc(C)c1C[C@H](N)C(=O)N[C@H](C)C(=O)NCC(=O)N[C@H](CC(=O)N(C)[C@@H](Cc1ccc(O)cc1)C(=O)O)Cc1ccccc1` [compound 160] the same measures were under 1 nM and under 1 nM.
For `CCCC[C@@H](C(=O)O)N(C)C(=O)C[C@H](Cc1cccc(Cl)c1)NC(=O)CNC(=O)[C@@H](C)NC(=O)[C@@H](N)Cc1c(C)cc(O)cc1C` [compound 151] the same measures were under 1 nM and under 1 nM.
On to `CCCCCCCCCCCCCCCCN(CC(N)=O)C(=O)C[C@H](Cc1ccccc1)NC(=O)CNC(=O)[C@@H](C)NC(=O)[C@@H](N)Cc1c(C)cc(O)cc1C` [compound 125], for which the EC50 on μ-opioid receptor (MOR) and on δ-opioid receptor (DOR) was 1 to 10 nM throughout.
`Cc1cc(O)cc(C)c1C[C@H](N)C(=O)NC(C)(C)C(=O)NCC(=O)N[C@H](CC(=O)N(C)CC(N)=O)Cc1ccccc1` [compound 90]: the EC50 at μ-opioid receptor (MOR) was under 1 nM; at δ-opioid receptor (DOR) it was 1 to 10 nM.
Turning to `Cc1cc(C(N)=O)cc(C)c1C[C@H](N)C(=O)N[C@H](C)C(=O)NCC(=O)N[C@H](CC(=O)N(C)[C@@H](CC1CCCCC1)C(=O)O)Cc1ccccc1` [compound 98], the concentration for a half-maximal effect (EC50) on μ-opioid receptor (MOR) and on δ-opioid receptor (DOR) was 1 to 10 nM in each case.
Take `Cc1cc(O)cc(C)c1C[C@H](N)C(=O)N[C@H](CC(=O)O)C(=O)NCC(=O)N[C@H](CC(=O)N(C)[C@@H](C)C(=O)O)Cc1ccccc1` [compound 170]: the half-maximal effective concentration (EC50) on μ-opioid receptor (MOR) and on δ-opioid receptor (DOR) was under 1 nM each time.
With `Cc1cc(O)cc(C)c1C[C@H](N)C(=O)N[C@H](CCCNC(=N)N)C(=O)N[C@@H](Cc1ccc(-c2ccccc2)cc1)C(=O)N[C@@H](CCCCN)C(N)=O` [compound 3] (H-[Dmt][dR][Bip]K-NH2), the EC50 at μ-opioid receptor (MOR) is 50 to 200 nM; on δ-opioid receptor (DOR), over 200 nM.
Regarding `Cc1cc(C(N)=O)cc(C)c1C[C@H](N)C(=O)NCC(=O)NCC(=O)N[C@H](CC(=O)N(C)CC(N)=O)Cc1ccccc1` [compound 74] (H-[Phe(2,6-Me2,4-CONH2)]GG[β3hF][Sar]-NH2), the EC50 on μ-opioid receptor (MOR) and at δ-opioid receptor (DOR) was under 1 nM throughout.
Take `Cc1cc(O)cc(C)c1C[C@H](N)C(=O)N[C@@H](C(=O)NCC(=O)N[C@H](CC(=O)N(C)[C@@H](C)C(=O)O)Cc1ccccc1)[C@H](C)O` [compound 183]: the EC50 on μ-opioid receptor (MOR) and at δ-opioid receptor (DOR) was under 1 nM each time.
With `CCC[C@@H](C(N)=O)N(C)C(=O)C[C@H](Cc1ccccc1)NC(=O)CNC(=O)[C@@H](C)NC(=O)[C@@H](N)Cc1c(C)cc(O)cc1C` [compound 184], the EC50 on μ-opioid receptor (MOR) and at δ-opioid receptor (DOR) was under 1 nM each time.
Turning to `CCCC[C@@H](C(=O)O)N(C)C(=O)C[C@H](Cc1ccccc1Br)NC(=O)CNC(=O)[C@@H](C)NC(=O)[C@@H](N)Cc1c(C)cc(O)cc1C` [compound 146], the half-maximal effective concentration (EC50) on μ-opioid receptor (MOR) and on δ-opioid receptor (DOR) was under 1 nM in each case.
On to `Cc1cc(C(N)=O)cc(C)c1C[C@H](N)C(=O)N[C@H](C)C(=O)NCC(=O)N[C@H](CC(=O)N(C)[C@@H](Cc1c[nH]c2ccccc12)C(=O)O)Cc1ccccc1` [compound 106], for which the EC50 on μ-opioid receptor (MOR) and at δ-opioid receptor (DOR) was 1 to 10 nM in each case.
Take `CCCC[C@@H](C(=O)O)N(C)C(=O)C[C@H](Cc1ccccc1)NC(=O)CNC(=O)[C@@H](CC(=O)O)NC(=O)[C@@H](N)Cc1c(C)cc(O)cc1C` [compound 178]: the concentration for a half-maximal effect (EC50) on μ-opioid receptor (MOR) and on δ-opioid receptor (DOR) was under 1 nM throughout.
Consider `Cc1cc(O)cc(C)c1C[C@H](N)C(=O)N[C@H](C)C(=O)NCC(=O)N[C@H](CC(=O)N(C)[C@@H](CC1CCCCC1)C(=O)O)Cc1ccccc1` [compound 156], for which the values for the concentration for a half-maximal effect (EC50) at μ-opioid receptor (MOR) and at δ-opioid receptor (DOR) were under 1 nM and 1 to 10 nM, respectively.
On the same counts, the results for `Cc1cc(O)cc(C)c1C[C@H](N)C(=O)N[C@H](C)C(=O)NCC(=O)N[C@H](CC(=O)N(CC(N)=O)CC(F)(F)F)Cc1ccccc1` [compound 122] are under 1 nM and under 1 nM.
For `CCCC[C@@H](C(=O)O)N(C)C(=O)C[C@H](Cc1c[nH]c2ccccc12)NC(=O)CNC(=O)[C@@H](C)NC(=O)[C@@H](N)Cc1c(C)cc(O)cc1C` [compound 153] the same measures were 1 to 10 nM and under 1 nM.
For `CCC[C@@H](C(=O)O)N(C)C(=O)C[C@H](Cc1ccccc1)NC(=O)CNC(=O)[C@@H](CC(=O)O)NC(=O)[C@@H](N)Cc1c(C)cc(O)cc1C` [compound 174] the same measures were under 1 nM and under 1 nM.
With `CCCC[C@@H](C(=O)O)N(C)C(=O)C[C@H](Cc1ccccc1F)NC(=O)CNC(=O)[C@@H](C)NC(=O)[C@@H](N)Cc1c(C)cc(O)cc1C` [compound 143], the EC50 at μ-opioid receptor (MOR) and at δ-opioid receptor (DOR) was under 1 nM throughout.
`CCCC[C@@H](C(=O)O)N(C)C(=O)C[C@H](Cc1cccc(C)c1)NC(=O)CNC(=O)[C@@H](C)NC(=O)[C@@H](N)Cc1c(C)cc(C(N)=O)cc1C` [compound 164]: the EC50 on μ-opioid receptor (MOR) and at δ-opioid receptor (DOR) was under 1 nM in each case.
In the case of `CCCC[C@@H](C(=O)O)N(C)C(=O)C[C@H](Cc1ccc(C)cc1)NC(=O)CNC(=O)[C@@H](C)NC(=O)[C@@H](N)Cc1c(C)cc(O)cc1C` [compound 142], the half-maximal effective concentration (EC50) was 1 to 10 nM at μ-opioid receptor (MOR) and under 1 nM on δ-opioid receptor (DOR).
`CCCC[C@@H](C(=O)O)N(C)C(=O)C[C@H](Cc1ccc(I)cc1)NC(=O)CNC(=O)[C@@H](C)NC(=O)[C@@H](N)Cc1c(C)cc(C(N)=O)cc1C` [compound 136]: the EC50 at μ-opioid receptor (MOR) and at δ-opioid receptor (DOR) was under 1 nM each time.
Turning to `Cc1cc(C(N)=O)cc(C)c1C[C@H](N)C(=O)N[C@H](C)C(=O)NCC(=O)N1Cc2ccccc2C[C@H]1C(=O)N(C)CC(N)=O` [compound 108], the concentration for a half-maximal effect (EC50) at μ-opioid receptor (MOR) lay within 1 to 10 nM; on δ-opioid receptor (DOR), 10 to 50 nM.
On the same counts, the results for `Cc1cc(O)cc(C)c1C[C@H](N)C(=O)N1Cc2ccccc2C[C@H]1C(=O)NCC(=O)N[C@H](CC(=O)N(C)CC(N)=O)Cc1ccccc1` [compound 104] are 50 to 200 nM and 50 to 200 nM.
As to `Cc1cc(O)cc(C)c1C[C@H](N)C(=O)N[C@H](C)C(=O)NCC(=O)N[C@H](CC(=O)N(C)[C@@H](Cc1ccccc1)C(=O)O)Cc1ccccc1` [compound 158], the EC50 on μ-opioid receptor (MOR) and at δ-opioid receptor (DOR) was under 1 nM each time.
Consider `Cc1cc(O)cc(C)c1C[C@H](N)C(=O)N[C@H](C)C(=O)N[C@@H](CCc1ccccc1)C(=O)N(C)CC(N)=O` [compound 46] (H-[Dmt][dA][hPhe][Sar]-NH2), for which the EC50 on μ-opioid receptor (MOR) and on δ-opioid receptor (DOR) was under 1 nM in each case.
On to `Cc1cc(O)cc(C)c1C[C@H](N)C(=O)N1Cc2ccccc2C[C@@H]1C(=O)N[C@@H](Cc1ccccc1)C(=O)N(C)CC(N)=O` [compound 44] (H-[Dmt][dTic]F[Sar]-NH2), for which the 50% effective concentration (EC50) on μ-opioid receptor (MOR) was under 1 nM; on δ-opioid receptor (DOR), 1 to 10 nM.
Regarding `Cc1cc(O)cc(C)c1C[C@H](N)C(=O)N[C@H](CCCNC(=N)N)C(=O)N[C@@H](Cc1ccccc1)C(=O)N(C)CC(N)=O` [compound 9] (H-[Dmt][dR]F[Sar]-NH2), the EC50 was under 1 nM at μ-opioid receptor (MOR) and 1 to 10 nM on δ-opioid receptor (DOR).
On the same counts, the results for `Cc1cc(O)cc(C)c1C[C@H](N)C(=O)N[C@H](CC(=O)O)C(=O)NCC(=O)N[C@H](CC(=O)N(C)[C@@H](Cc1ccccc1)C(=O)O)Cc1ccccc1` [compound 177] are under 1 nM and under 1 nM.
For `Cc1cc(O)cc(C)c1C[C@H](N)C(=O)N[C@H](CCCNC(=N)N)C(=O)N[C@@H](CCc1ccccc1)C(=O)N(C)CCC(=O)O` [compound 12] the same measures were under 1 nM and under 1 nM.
On the same counts, the results for `C[C@@H](NC(=O)[C@@H](N)Cc1ccc(C(N)=O)cc1)C(=O)NCC(=O)N[C@H](CC(=O)N(C)CC(N)=O)Cc1ccccc1` [compound 60] are 1 to 10 nM and 1 to 10 nM.
Regarding `Cc1cc(O)cc(C)c1C[C@H](N)C(=O)N[C@H](CCC(=O)O)C(=O)NCC(=O)N[C@H](CC(=O)N(C)[C@@H](C)C(=O)O)Cc1ccccc1` [compound 185], the EC50 at μ-opioid receptor (MOR) was 1 to 10 nM; at δ-opioid receptor (DOR), under 1 nM.

Values taken from patent publication US10278957B2, “Opioid agonist peptides and uses thereof” (Protagonist Therapeutics, Inc., priority 2017, dated 2019).
